Tested on: 454973-116-R2-J3-PDC spheroids, viability, % test/control
Experiment: Anticancer human tumor 454973-116-R2-J3-PDC patient-derived pancreatic carcinoma cell line growth inhibition [GQUAD]
Conditions: spheroids with HUVEC and MSC; for IC50: curve of first compound; for viability, T/C: stronger effect = lower value; active means viability on the fitted dose curve at most 10% of control; inactive means the rest
Summary of the method: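 Viability of tumor cells grown as complex spheroids with endothelial and stromal cells, exposed to drug combinations. Top concentration at or near clinical Cmax (else 10 microM), diluted in half-log increments.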

[1] = second compound 0.0316 µM, first compound 0.0316 µM
[2] = second compound 0.0316 µM, first compound 0.1 µM
[3] = second compound 0.0316 µM, first compound 0.316 µM
[4] = second compound 0.0316 µM, first compound 1 µM
[5] = second compound 0.0316 µM, first compound 3.16 µM
[6] = second compound 0.0316 µM, first compound 10 µM
[7] = second compound 0.1 µM, first compound 0.0316 µM
[8] = second compound 0.1 µM, first compound 0.1 µM
[9] = second compound 0.1 µM, first compound 0.316 µM
[10] = second compound 0.1 µM, first compound 1 µM
[11] = second compound 0.1 µM, first compound 3.16 µM
[12] = second compound 0.1 µM, first compound 10 µM
[13] = second compound 0.316 µM, first compound 0.0316 µM
[14] = second compound 0.316 µM, first compound 0.1 µM
[15] = second compound 0.316 µM, first compound 0.316 µM
[16] = second compound 0.316 µM, first compound 1 µM
[17] = second compound 0.316 µM, first compound 3.16 µM
[18] = second compound 0.316 µM, first compound 10 µM
[19] = second compound 1 µM, first compound 0.0316 µM
[20] = second compound 1 µM, first compound 0.1 µM
[21] = second compound 1 µM, first compound 0.316 µM
[22] = second compound 1 µM, first compound 1 µM
[23] = second compound 1 µM, first compound 3.16 µM
[24] = second compound 1 µM, first compound 10 µM
[25] = second compound 3.16 µM, first compound 0.0316 µM
[26] = second compound 3.16 µM, first compound 0.1 µM
[27] = second compound 3.16 µM, first compound 0.316 µM
[28] = second compound 3.16 µM, first compound 1 µM
[29] = second compound 3.16 µM, first compound 3.16 µM
[30] = second compound 3.16 µM, first compound 10 µM
[31] = second compound 10 µM, first compound 0.0316 µM
[32] = second compound 10 µM, first compound 0.1 µM
[33] = second compound 10 µM, first compound 0.316 µM
[34] = second compound 10 µM, first compound 1 µM
[35] = second compound 10 µM, first compound 3.16 µM
[36] = second compound 10 µM, first compound 10 µM
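Further: spheroids exposed to compounds for seven days.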
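Wherever viability, T/C is given: 100% = DMSO vehicle control viability.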

C#Cc1c(F)ccc2cc(O)cc(-c3ncc4c(N5CC6CCC(C5)N6)nc(OCC56CCCN5CC(F)C6)nc4c3F)c12 (stereo not given) + Cc1[nH]c2ccc(F)cc2c1-c1nc2c3cccnc3c3ncccc3c2[nH]1
inactive: viability, T/C [1] 59.5% | viability, T/C [2] 40.2% | viability, T/C [3] 27.5% | viability, T/C [4] 25.1% | viability, T/C [5] 21.5% | viability, T/C [6] 15.5% | viability, T/C [7] 63.5% | viability, T/C [8] 43.4% | viability, T/C [9] 34.5% | viability, T/C [10] 24.4% | viability, T/C [11] 21.9% | viability, T/C [12] 17% | viability, T/C [13] 57.2% | viability, T/C [14] 45.2% | viability, T/C [15] 27.7% | viability, T/C [16] 23.9% | viability, T/C [17] 29.6% | viability, T/C [18] 17.5% | viability, T/C [19] 58.6% | viability, T/C [20] 41.8% | viability, T/C [21] 29.8% | viability, T/C [22] 22.9% | viability, T/C [23] 17.6% | viability, T/C [24] 15.4% | viability, T/C [25] 52.1% | viability, T/C [26] 35.5% | viability, T/C [27] 27.2% | viability, T/C [28] 21.1% | viability, T/C [29] 19.6% | viability, T/C [30] 12.8% | viability, T/C [31] 48.1% | viability, T/C [32] 36.9% | viability, T/C [33] 26.2% | viability, T/C [34] 17.6% | viability, T/C [35] 16.8% | viability, T/C [36] 12.3%
57 nM: IC50 (second compound 1 µM)
56.2 nM: IC50 (second compound 0.316 µM)
72.2 nM: IC50 (second compound 0.1 µM)
55.4 nM: IC50 (second compound 0.0316 µM)
34.6 nM: IC50 (second compound 3.16 µM)
< 31.6 nM: IC50 (second compound 10 µM)

CC(=O)O[C@H]1C(=O)[C@@]2(C)[C@H]([C@H](OC(=O)c3ccccc3)[C@]3(O)C[C@H](OC(=O)[C@H](O)[C@@H](NC(=O)c4ccccc4)c4ccccc4)C(C)=C1C3(C)C)[C@]1(OC(C)=O)CO[C@@H]1C[C@@H]2O + Cc1[nH]c2ccc(F)cc2c1-c1nc2c3cccnc3c3ncccc3c2[nH]1
< 31.6 nM: IC50 (second compound 0.0316 µM) | IC50 (second compound 0.1 µM) | IC50 (second compound 0.316 µM) | IC50 (second compound 1 µM) | IC50 (second compound 3.16 µM) | IC50 (second compound 10 µM)
inactive: viability, T/C [1] 15.2% | viability, T/C [7] 14.5% | viability, T/C [13] 14.6% | viability, T/C [19] 12.3% | viability, T/C [25] 11.1% | viability, T/C [31] 12.5%
active: viability, T/C [2] 8.26% | viability, T/C [3] 7.28% | viability, T/C [4] 6.32% | viability, T/C [5] 7.13% | viability, T/C [6] 7.83% | viability, T/C [8] 9.64% | viability, T/C [9] 7.87% | viability, T/C [10] 6.95% | viability, T/C [11] 7.87% | viability, T/C [12] 8.54% | viability, T/C [14] 9.07% | viability, T/C [15] 5.61% | viability, T/C [16] 5.86% | viability, T/C [17] 5.85% | viability, T/C [18] 9.29% | viability, T/C [20] 7.44% | viability, T/C [21] 6.58% | viability, T/C [22] 5.96% | viability, T/C [23] 7.37% | viability, T/C [24] 10.1% | viability, T/C [26] 8.56% | viability, T/C [27] 7.65% | viability, T/C [28] 6.65% | viability, T/C [29] 6.16% | viability, T/C [30] 9.4% | viability, T/C [32] 8.79% | viability, T/C [33] 7.16% | viability, T/C [34] 7.79% | viability, T/C [35] 7.84% | viability, T/C [36] 7.93%

CCCS(=O)(=O)Nc1ccc(F)c(C(=O)c2c[nH]c3ncc(-c4ccc(Cl)cc4)cc23)c1F + Cc1[nH]c2ccc(F)cc2c1-c1nc2c3cccnc3c3ncccc3c2[nH]1
6400 nM: IC50 (second compound 10 µM)
inactive: viability, T/C [1] 114% | viability, T/C [2] 117% | viability, T/C [3] 127% | viability, T/C [4] 116% | viability, T/C [5] 101% | viability, T/C [7] 112% | viability, T/C [8] 118% | viability, T/C [9] 113% | viability, T/C [10] 118% | viability, T/C [11] 92.7% | viability, T/C [13] 112% | viability, T/C [14] 107% | viability, T/C [15] 102% | viability, T/C [16] 113% | viability, T/C [17] 113% | viability, T/C [19] 104% | viability, T/C [20] 102% | viability, T/C [21] 114% | viability, T/C [22] 128% | viability, T/C [23] 115% | viability, T/C [25] 109% | viability, T/C [26] 115% | viability, T/C [27] 114% | viability, T/C [28] 98.6% | viability, T/C [29] 112% | viability, T/C [30] 13.3% | viability, T/C [31] 107% | viability, T/C [32] 101% | viability, T/C [33] 116% | viability, T/C [34] 110% | viability, T/C [35] 106% | viability, T/C [36] 14.4%
6300 nM: IC50 (second compound 1 µM)
active: viability, T/C [6] 8.25% | viability, T/C [12] 8.04% | viability, T/C [18] 9.5% | viability, T/C [24] 8.32%
5970 nM: IC50 (second compound 0.0316 µM)
6270 nM: IC50 (second compound 0.316 µM)
5650 nM: IC50 (second compound 0.1 µM)
6450 nM: IC50 (second compound 3.16 µM)

Nc1ccn(C2OC(CO)C(O)C2(F)F)c(=O)n1 (stereo not given) + Cc1[nH]c2ccc(F)cc2c1-c1nc2c3cccnc3c3ncccc3c2[nH]1
inactive: viability, T/C [1] 20.1% | viability, T/C [2] 13.8% | viability, T/C [3] 17.1% | viability, T/C [4] 17.2% | viability, T/C [5] 17.2% | viability, T/C [6] 15.5% | viability, T/C [7] 19.7% | viability, T/C [8] 13.9% | viability, T/C [9] 15.5% | viability, T/C [10] 13.7% | viability, T/C [11] 17.3% | viability, T/C [12] 14.8% | viability, T/C [13] 15.3% | viability, T/C [14] 15.8% | viability, T/C [15] 17.7% | viability, T/C [16] 14.5% | viability, T/C [17] 16.9% | viability, T/C [18] 15.8% | viability, T/C [19] 19% | viability, T/C [20] 19.2% | viability, T/C [21] 16% | viability, T/C [22] 20.1% | viability, T/C [23] 14.2% | viability, T/C [24] 17.2% | viability, T/C [25] 16.1% | viability, T/C [26] 15.6% | viability, T/C [27] 17.8% | viability, T/C [28] 17.4% | viability, T/C [29] 19.1% | viability, T/C [30] 16.4% | viability, T/C [31] 17.5% | viability, T/C [32] 17.6% | viability, T/C [33] 17% | viability, T/C [34] 17% | viability, T/C [35] 13.8% | viability, T/C [36] 16.6%
< 31.6 nM: IC50 (second compound 0.0316 µM) | IC50 (second compound 0.1 µM) | IC50 (second compound 0.316 µM) | IC50 (second compound 1 µM) | IC50 (second compound 3.16 µM) | IC50 (second compound 10 µM)

O=c1[nH]cc(F)c(=O)[nH]1 + Cc1[nH]c2ccc(F)cc2c1-c1nc2c3cccnc3c3ncccc3c2[nH]1
1530 nM: IC50 (second compound 0.1 µM)
2250 nM: IC50 (second compound 0.0316 µM)
1920 nM: IC50 (second compound 3.16 µM)
inactive: viability, T/C [1] 116% | viability, T/C [2] 115% | viability, T/C [3] 109% | viability, T/C [4] 77.9% | viability, T/C [5] 34.5% | viability, T/C [6] 42.2% | viability, T/C [7] 105% | viability, T/C [8] 109% | viability, T/C [9] 109% | viability, T/C [10] 57.5% | viability, T/C [11] 33.7% | viability, T/C [12] 40.5% | viability, T/C [13] 107% | viability, T/C [14] 110% | viability, T/C [15] 105% | viability, T/C [16] 78.9% | viability, T/C [17] 31.8% | viability, T/C [18] 41.1% | viability, T/C [19] 99.2% | viability, T/C [20] 97.2% | viability, T/C [21] 95.4% | viability, T/C [22] 79.1% | viability, T/C [23] 33.9% | viability, T/C [24] 46.3% | viability, T/C [25] 96.5% | viability, T/C [26] 96.1% | viability, T/C [27] 99.9% | viability, T/C [28] 65.1% | viability, T/C [29] 31.4% | viability, T/C [30] 45.6% | viability, T/C [31] 93.5% | viability, T/C [32] 87.7% | viability, T/C [33] 102% | viability, T/C [34] 63.7% | viability, T/C [35] 30.9% | viability, T/C [36] 46.6%
1880 nM: IC50 (second compound 10 µM)
2360 nM: IC50 (second compound 1 µM)
2190 nM: IC50 (second compound 0.316 µM)

Reference: PubChem BioAssay AID2060508 (Molecular Pharmacology Branch, DTP, NCI, 2025)
